The source of these data is patent US6372297B1, “Wood preservative oxathiazines” (Uniroyal Chemical Company, Inc., priority 1993, dated 2002).

What all share (assay type): cell-based
One experiment has as its system Aspergillus flavus. Nature of the experiment: Wood preservative efficacy against fungi, agar plate colony diameter. The protocol: (§1) Each plate was inoculated with a spore suspension or with a small piece of agar (1 mm) from the margin of an actively growing colony of the test fungus. The fungi employed are listed below. After incubation at 22° C. and 70% relative humidity during a period long enough to allow significant growth of untreated controls, the diameters of the fungus colonies were measured and scored using the following rating system: 0=free of fungal growth 1=25% of fungal growth compared to untreated 2=50% of fungal growth compared to untreated 3=75% of fungal growth compared to untreated 4=Growth equal to that of untreated The scores measured for wood preservation efficacy of the compounds of this invention are listed in Tables 6a and 6b. In these Tables, the lower numbers are the most preferred species. Aspergillus flavus

The next experiment has as its system Trichoderma viride. The description is as above. Here is the method:
as §1, with “Trichoderma viride” for “Aspergillus flavus”

Another experiment concerns Aureobasidium pullulans. Described as above. Also noted: key: 1=25%, 2=50%, 3=75%, 4=100% of untreated growth; lower better. Here is the method:
The compounds shown in Table 1 were dissolved in 50% ethanol and then diluted with sterile water to give the required concentrations of 1 and 10 ppm in the test agar plates. Malt extract sugar (3%) was added aseptically and uniform distribution was obtained by shaking. Each plate was inoculated with a spore suspension or with a small piece of agar (1 mm) from the margin of an actively growing colony of the test fungus. The fungi employed are listed below. After incubation at 22° C. and 70% relative humidity during a period long enough to allow significant growth of untreated controls, the diameters of the fungus colonies were measured and scored using the following rating system:
1=25% of fungal growth compared to untreated
2=50% of fungal growth compared to untreated
3=75% of fungal growth compared to untreated
4=Growth equal to that of untreated
In these Tables, the lower numbers are the most preferred species.

A further experiment deals with Pseudomonas alcaligenes. Nature of the experiment: Wood preservative efficacy against bacteria and yeasts, tryptose agar plates. Also noted: key: 0 = growth equal to control, 1 = inhibition, 2 = no growth. Particulars: 100 ppm in tryptose agar. Put shortly: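 Compounds dissolved in 50% ethanol, diluted with sterile water and incorporated into tryptose agar, then inoculated with Pseudomonas alcaligenes. Once untreated cultures grew, scored 0 (growth as control), 1 (inhibited growth) or 2 (no growth).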

In another experiment the test system is Mucor sp. As to the kind of experiment: Wood preservative efficacy against fungi, agar plate colony diameter. The protocol: as §1, with “Mucor sp.” for “Aspergillus flavus”
The test system of a further experiment is Enterobacter aerogenes. As to the kind of experiment: Wood preservative efficacy against bacteria and yeasts, tryptose agar plates. The arrangement: key: 0 = growth equal to control, 1 = inhibition, 2 = no growth. Put shortly:
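Compounds dissolved in 50% ethanol and diluted in sterile water were added to the medium, which was then inoculated with the bacterium. Once untreated cultures had grown, growth was scored 0 (equal to control), 1 (inhibited) or 2 (no growth).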

Another experiment deals with Aspergillus niger. As to the kind of experiment: Wood preservative efficacy against fungi, agar plate colony diameter. The protocol:
as §1, with “niger” for “flavus”

For another experiment, the system named is Flavobacterium sp. As to the kind of experiment: Wood preservative efficacy against bacteria and yeasts, tryptose agar plates. The arrangement: key: 0 = growth equal to control, 1 = growth inhibited, 2 = no growth. A digest of the protocol: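 Compounds dissolved in 50% ethanol, diluted with sterile water, incorporated into tryptose agar then inoculated with Flavobacterium sp. Once untreated controls grew sufficiently, scored 0 (growth as control), 1 (inhibition) or 2 (no growth).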

The subject of the next experiment is Coriolus versicolor. Nature of the experiment: Wood preservative efficacy against fungi, agar plate colony diameter. The following applies: for Score of fungicidal activity, G. VERSICLOR: 10 ppm, Table 6B. Here is the method:
as §1, with “Coriolus versicolor” for “Aspergillus flavus”

Another experiment concerns Bacillus cereus mycoides. The arrangement: scale not given here.

Like-named read-outs stand apart in the source and are kept apart here.

`CCOc1ccc(C2=NOCC[S+]2C)cc1` (stereo not shown) [Compound 28]: the “Score of fungicidal activity, A. FLAVUS” value with Aspergillus flavus (10 ppm, Table 6B) was 3 (75% of growth compared to untreated control). Also, in the experiment with Trichoderma viride (10 ppm, Table 6B), the “Score of fungicidal activity, T. VIRIDE” value is given as 3 (75% of growth compared to untreated control). In addition, the “Score of fungicidal activity, A. PULLULANS” value (shortened to “Score … A. PULLULANS”) in the experiment with Aureobasidium pullulans (10 ppm, Table 6B) is reported as 4. For the same molecule, the “Score of bactericidal activity, P. alcalgenes” value (from here on “Score … P. alcalgenes”) in the experiment with Pseudomonas alcaligenes worked out at 0. The “Score of fungicidal activity, MUCOR SP” value with Mucor sp. (100 ppm, Table 6B) is 1 (25% of growth compared to untreated control). Moreover, the “Score of bactericidal activity, E. aerogenes” value (from here on “Score … E. aerogenes”) in the experiment on Enterobacter aerogenes (10 ppm in tryptose agar) and in the experiment with Enterobacter aerogenes (100 ppm in tryptose agar) was 0 in each case. The “Score of fungicidal activity, A. NIGER” value in the experiment with Aspergillus niger (10 ppm, Table 6B) is 4. The “Score of bactericidal activity, Flavobacter” value (“Score … Flavobacter” for short) turned out to be 0 with Flavobacterium sp. (10 ppm in tryptose agar) and 2 with Flavobacterium sp. (100 ppm in tryptose agar). Besides, in the experiment with Coriolus versicolor, the “Score of fungicidal activity, G. VERSICLOR” value is 3 (75% of growth compared to untreated control). For the same molecule, the figures for the “Score of bactericidal activity, B. cereus mycoides” value (“Score … B. cereus mycoides” below) in the experiment on Bacillus cereus mycoides (10 ppm in tryptose agar) and in the experiment on Bacillus cereus mycoides (100 ppm in tryptose agar) were 1 and 2, respectively.

With `CCOC(=O)c1ccc(C2=NOCC[S+]2[O-])cc1` (stereo not shown) [Compound 22], the “Score of fungicidal activity, A. FLAVUS” value in the experiment with Aspergillus flavus (10 ppm, Table 6B) is listed as 2 (50% of growth compared to untreated control). The “Score of fungicidal activity, T. VIRIDE” value in the experiment on Trichoderma viride (10 ppm, Table 6B) was 3 (75% of growth compared to untreated control). Moreover, in the experiment on Aureobasidium pullulans (10 ppm, Table 6B), the “Score … A. PULLULANS” value is 4. In addition, in the experiment with Pseudomonas alcaligenes, the “Score … P. alcalgenes” value was found to be 1. The “Score of fungicidal activity, MUCOR SP” value in the experiment on Mucor sp. (100 ppm, Table 6B) was determined as 0. Further, the “Score … E. aerogenes” value in the experiment on Enterobacter aerogenes (10 ppm in tryptose agar) and in the experiment on Enterobacter aerogenes (100 ppm in tryptose agar) was 0 throughout. Moreover, the “Score of fungicidal activity, A. NIGER” value with Aspergillus niger (10 ppm, Table 6B) is given as 3 (75% of growth compared to untreated control). The “Score … Flavobacter” value was found to be 1 in the experiment with Flavobacterium sp. (10 ppm in tryptose agar) and 2 in the experiment on Flavobacterium sp. (100 ppm in tryptose agar). Besides, the “Score of fungicidal activity, G. VERSICLOR” value with Coriolus versicolor is listed as 2 (50% of growth compared to untreated control). Also, the “Score … B. cereus mycoides” value in the experiment with Bacillus cereus mycoides (10 ppm in tryptose agar) and in the experiment with Bacillus cereus mycoides (100 ppm in tryptose agar) was 2 each time.

Take `CC(=O)c1ccc(C2=NOCC[S+]2[O-])cc1` (stereo not shown) [Compound 14]: the “Score of fungicidal activity, A. FLAVUS” value with Aspergillus flavus (Test dosage 10 ppm, Table 6A) is reported as 2 (50% of growth compared to untreated control). For the same molecule, the “Score of fungicidal activity, T. VIRIDE” value in the experiment with Trichoderma viride (Test dosage 10 ppm, Table 6A) is reported as 3 (75% of growth compared to untreated control). For the same molecule, the “Score … A. PULLULANS” value in the experiment with Aureobasidium pullulans (Test dosage 10 ppm, Table 6A) worked out at 4. For the same molecule, the “Score … P. alcalgenes” value in the experiment on Pseudomonas alcaligenes was 1. Moreover, the “Score of fungicidal activity, MUCOR SP” value in the experiment on Mucor sp. (Test dosage 10 ppm, Table 6A) is reported as 1 (25% of growth compared to untreated control). Moreover, the “Score … E. aerogenes” value in the experiment on Enterobacter aerogenes (100 ppm in tryptose agar) turned out to be 0. Further, the “Score of fungicidal activity, A. NIGER” value in the experiment with Aspergillus niger (Test dosage 10 ppm, Table 6A) is listed as 3 (75% of growth compared to untreated control). Also, the “Score … Flavobacter” value with Flavobacterium sp. (100 ppm in tryptose agar) is 2. Besides, in the experiment on Coriolus versicolor (Test dosage 10 ppm, Table 6A), the “Score of fungicidal activity, C. VERSICLOR” value was 2 (50% of growth compared to untreated control). Further, the “Score … B. cereus mycoides” value in the experiment on Bacillus cereus mycoides (10 ppm in tryptose agar) and with Bacillus cereus mycoides (100 ppm in tryptose agar) was 2 each time.
